For the assay, the system named is CEM cells HIV-1 protection, formazan growth assay. As to the kind of experiment: NCI AIDS Antiviral Assay. Conditions: for pIC50: measured here: growth of uninfected CEM cells. Put shortly: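 Soluble formazan readout of cell growth; CEM cells ± HIV-1; 5 drug concs. ≥50% protection → retest; ≥50% again = moderately active; reproducible 100% = confirmed active.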

Each structure is given as a SMILES string. pEC50, pIC50: −log10 of the molar value. Active and inactive are the calls of the source.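 How the source made its calls: active means compounds giving half or more protection of infected cells from virus-caused growth loss, again on retest; inactive means the rest.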 Where only a bound is given, the exact number is not on record here.

`CCOC(=O)CNc1c(OCc2ccccc2)c(=O)c1=O`: the pEC50 (usually the negative decadic logarithm of the EC50, by convention in mol/L) was below 3.70 and the pIC50 (commonly −log10 of the IC50, conventionally taken in molar units) is below 3.70.

As for `O=C1CS(=O)(=O)C(c2ccccc2Cl)N1N1C(=O)CS(=O)(=O)C1c1ccccc1Cl` (stereo not drawn), the pEC50 was below 3.70 and the pIC50 is 4.33. For `CC(=O)N1CCC2(C=Nc3ccccc32)CC1` the same measures were below 4.64 and below 4.64. For `CC(=O)NCCc1c[nH]c2ccc(Cl)cc12` the same measures were below 3.70 and 3.71. For `COC(=O)C1=C(C)N[C@@]2(C)[C@H](C(=O)OC)C[C@H]1C2(C(C)=O)C(C)=O` the same measures were below 3.70 and below 3.70.

With `c1ccc2c3csc4ccccc4c-3nc2c1`, the result was inactive. Consider `CC1(C)COC(c2cccc(C(=O)c3ccccc3)c2)=N1`, for which the pEC50 was below 3.70 and the pIC50 was 4.24. For `N#CC1(c2ccccc2)CCN(C2(c3ccccc3)CCCCC2)CC1` the same measures were below 3.70 and below 3.70. For `O=C(O)[C@@H]1CSC(c2ccc(C(F)(F)F)cc2)N1` (stereo partly drawn) the same measures were below 3.70 and below 3.70. For `O=C(O)c1cc(=O)c2[nH]c3ccccc3c2s1`, the outcome was inactive.

Regarding `Cc1ccc2c(=O)c3cccc(CC(=O)O)c3[nH]c2c1C`, the pEC50 was below 3.70 and the pIC50 was 4.32.

In the case of `COc1ccc2c(C)cc(N/N=C/c3sccc3C)nc2c1`, the pEC50 is below 3.70 and the pIC50 is 5.08. For `C[n+]1c(-c2ccc(/C=N\NC(=O)N/N=C/c3ccc(-c4cn5ccccc5[n+]4C)cc3)cc2)cn2ccccc21` the same measures were 4.44 and 4.32.

On to `Cc1nnc(N)nc1/C=C\c1ccc(Cl)cc1Cl`, for which the pEC50 is below 3.70 and the pIC50 is 4.30. For `CCn1c(=O)c2c3ccc(O)cc3[nH]c2c2ccc(O)cc21` the same measures were below 3.70 and 4.41.

As for `CC(C)CCCC(C)[C@H]1CC[C@@H]2[C@H]3CC[C@H]4C[C@@H](CCC=C(c5cc(Cl)c(OCc6ccc([N+](=O)[O-])cc6)c(C(=O)OCc6ccc([N+](=O)[O-])cc6)c5)c5cc(Cl)c(OCc6ccc([N+](=O)[O-])cc6)c(C(=O)OCc6ccc([N+](=O)[O-])cc6)c5)CC[C@]4(C)[C@@H]3CC[C@]12C` (stereo partly drawn), the pEC50 is 4.63 and the pIC50 was 4.14.

For `Cc1nc2ccc(S(=O)(=O)Nc3ccccc3Cl)cc2c(=O)n1NC(=O)CNc1ccccc1Cl`, the pEC50 was below 3.70 and the pIC50 was 3.77. Regarding `CC(=O)C1C(=O)C(=O)N(c2ccccc2C(C)C)C1=O` (stereo not drawn), the outcome was inactive.

For the compound `COc1ccc(S(=O)(=O)O)cc1NS(=O)(=O)c1ccc(C)cc1`, the pEC50 is below 3.70 and the pIC50 is below 3.70. `Cc1ccc(S(=O)(=O)N2CCCCN(S(=O)(=O)c3ccc(C)cc3)Cc3ccccc3OCCOCCOc3c4cccc3Cc3cccc5c3OCCOCCOc3ccccc3CN(S(=O)(=O)c3ccc(C)cc3)CCCN(S(=O)(=O)c3ccc(C)cc3)Cc3ccccc3OCCOCCOc3c(cccc3C4)Cc3cccc(c3OCCOCCOc3ccccc3C2)C5)cc1`: the pEC50 is below 4.00 and the pIC50 was below 4.00. Consider `CCN(C(=O)N[C@@H](Cc1ccccc1)C(=O)N[C@@H](CC(C)C)C(=O)OC)c1ccccc1`, for which the pEC50 is 5.30 and the pIC50 was 4.54.

In the case of `Nc1nnc2ccccn12`, the pEC50 was below 3.01 and the pIC50 was below 3.01. Turning to `COc1ccc2c3c(c(C(=O)O)oc13)CCC2`, the outcome was inactive. On to `Nc1nc2cc[nH]c2c(=O)[nH]1`, for which the pEC50 was below 3.18 and the pIC50 is below 3.18.

For the compound `COc1cc(/C=C(\C)c2ccc3c(c2)OCO3)cc(OC)c1OC`, the pEC50 is below 4.38 and the pIC50 is below 4.38. `Cn1cc(NC(=O)c2cc([N+](=O)[O-])cn2C)cc1C(=O)Nc1cc(S(=O)(=O)O)c2cc(S(=O)(=O)O)cc(S(=O)(=O)O)c2c1`: the pEC50 was 3.56 and the pIC50 was 3.46.

The record behind these values is PubChem BioAssay AID179 (DTP/NCI, 2004).
